Reference: PubChem BioAssay AID248 (DTP/NCI, 2004)
Several values for one entry are separate records, joined by “and”; a condition that tells them apart may be missing. Equal entries are not always repeated. Inconclusive results and toxic doses are left out.

Test system: L1210 leukemia ip in BDF1 mice, survival T/C
Assay: NCI In Vivo Anticancer Drug Screen. Data for tumor model L1210 Leukemia (intraperitoneal) in B6D2F1 (BDF1) mice
Conditions: endpoint: mean survival time, higher = longer survival
In short: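 Read-out is survival time, reported as the treated-group measurement over the vehicle-control measurement.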

[1] = dose: 100.0 mg/kg/injection, schedule: Q04DX003 (ip), vehicle: saline
[2] = dose: 200.0 mg/kg/injection, schedule: Q04DX003 (ip), vehicle: saline
[3] = dose: 400.0 mg/kg/injection, schedule: Q04DX003 (ip), vehicle: saline

O=C(NCCCCCCCCNC(=O)Nc1ccc(C2=NCCN2)cc1)Nc1ccc(C2=NCCN2)cc1
T/C (dose: 25.0 mg/kg/injection, schedule: Q01DX Z (ip), vehicle: carboxymethylcellulose (CMC)): 117 % of control | T/C (dose: 62.0 mg/kg/injection, schedule: Q01DX Z (ip), vehicle: carboxymethylcellulose (CMC)): 151 % of control | T/C (dose: 62.0 mg/kg/injection, schedule: Q01DX Z (oral), vehicle: carboxymethylcellulose (CMC)): 103 % of control | T/C (dose: 100.0 mg/kg/injection, schedule: Q01DX Z (ip), vehicle: carboxymethylcellulose (CMC)): 187 % of control | T/C (dose: 125.0 mg/kg/injection, schedule: Q01DX Z (ip), vehicle: carboxymethylcellulose (CMC)): 157 % of control | T/C (dose: 125.0 mg/kg/injection, schedule: Q01DX Z (oral), vehicle: carboxymethylcellulose (CMC)): 111 % of control | T/C (dose: 150.0 mg/kg/injection, schedule: Q01DX Z (ip), vehicle: carboxymethylcellulose (CMC)): 213 % of control | T/C (dose: 250.0 mg/kg/injection, schedule: Q01DX Z (ip), vehicle: carboxymethylcellulose (CMC)): 114 % of control | T/C (dose: 250.0 mg/kg/injection, schedule: Q01DX Z (oral), vehicle: carboxymethylcellulose (CMC)): 109 % of control | T/C (dose: 500.0 mg/kg/injection, schedule: Q01DX Z (oral), vehicle: carboxymethylcellulose (CMC)): 120 % of control

CC1(C)COc2cc([N+](=O)[O-])cc(N)c2N1
T/C (dose: 75.0 mg/kg/injection, schedule: Q01DX001 (ip), vehicle: saline): 107 % of control | T/C (dose: 75.0 mg/kg/injection, schedule: Q04DX003 (ip), vehicle: acetone): 110 % of control | T/C (dose: 150.0 mg/kg/injection, schedule: Q01DX001 (ip), vehicle: saline): 100 % of control | T/C (dose: 150.0 mg/kg/injection, schedule: Q04DX003 (ip), vehicle: acetone): 95 % of control | T/C (dose: 300.0 mg/kg/injection, schedule: Q01DX001 (ip), vehicle: saline): 96 % of control | T/C (dose: 300.0 mg/kg/injection, schedule: Q04DX003 (ip), vehicle: acetone): 101 % of control

O=C(NCCBr)Nc1ccccc1
T/C (dose: 12.5 mg/kg/injection, schedule: Q01DX009 (ip), vehicle: Klucel (hydroxypropylcellulose) (HPC)): 97 % of control | T/C (dose: 25.0 mg/kg/injection, schedule: Q01DX009 (ip), vehicle: Klucel (hydroxypropylcellulose) (HPC)): 108 % of control | T/C (dose: 50.0 mg/kg/injection, schedule: Q01DX009 (ip), vehicle: Klucel (hydroxypropylcellulose) (HPC)): 108 % of control | T/C (dose: 80.0 mg/kg/injection, schedule: Q01DX009 (ip), vehicle: Klucel (hydroxypropylcellulose) (HPC)): 103 % of control | T/C (dose: 115.0 mg/kg/injection, schedule: Q01DX009 (ip), vehicle: Klucel (hydroxypropylcellulose) (HPC)): 114 % of control | T/C (dose: 170.0 mg/kg/injection, schedule: Q01DX009 (ip), vehicle: Klucel (hydroxypropylcellulose) (HPC)): 95 % of control

Clc1ccc(CC[PH+]2CC=CC2)cc1.Clc1ccc(CC[PH+]2CC=CC2)cc1.[Cl][Ni][Cl]
T/C (dose: 100.0 mg/kg/injection, schedule: Q04DX002 (ip), vehicle: saline with Tween-80): 107 % of control

O=C(C#Cc1ccccc1)[O][Sn]([c]1ccccc1)([c]1ccccc1)[c]1ccccc1
T/C (dose: 1.56 mg/kg/injection, schedule: Q01DX009 (ip), vehicle: saline): 102 % of control | T/C (dose: 3.12 mg/kg/injection, schedule: Q01DX009 (ip), vehicle: saline): 94 % of control | T/C (dose: 6.25 mg/kg/injection, schedule: Q01DX009 (ip), vehicle: saline): 96 % of control and 108 % of control

Cc1cccc(C)c1NC(=O)OCCSc1ccc(Cl)cc1
T/C (dose: 50.0 mg/kg/injection, schedule: Q01DX009 (ip), vehicle: saline with Tween-80): 115 % of control | T/C (dose: 100.0 mg/kg/injection, schedule: Q01DX009 (ip), vehicle: saline with Tween-80): 96 % of control | T/C (dose: 200.0 mg/kg/injection, schedule: Q01DX009 (ip), vehicle: saline with Tween-80): 93 % of control

CCC(C)(O)C#CC(C)(O)CC (stereo not drawn)
T/C (dose: 100.0 mg/kg/injection, schedule: Q01DX001 (ip), vehicle: saline): 100 % of control | T/C (dose: 100.0 mg/kg/injection, schedule: Q01DX009 (ip), vehicle: saline): 101 % of control | T/C [1]: 105 % of control | T/C (dose: 200.0 mg/kg/injection, schedule: Q01DX001 (ip), vehicle: saline): 106 % of control | T/C (dose: 200.0 mg/kg/injection, schedule: Q01DX009 (ip), vehicle: saline): 100 % of control | T/C [2]: 105 % of control | T/C (dose: 400.0 mg/kg/injection, schedule: Q01DX001 (ip), vehicle: saline): 102 % of control | T/C [3]: 100 % of control

CCCCCCCCCCOc1ccc(C=Nc2ccc(CC)cc2)cc1
T/C (dose: 100.0 mg/kg/injection, schedule: Q01DX009 (ip), vehicle: Klucel (hydroxypropylcellulose) (HPC)): 103 % of control | T/C (dose: 200.0 mg/kg/injection, schedule: Q01DX009 (ip), vehicle: Klucel (hydroxypropylcellulose) (HPC)): 90 % of control | T/C (dose: 400.0 mg/kg/injection, schedule: Q01DX009 (ip), vehicle: Klucel (hydroxypropylcellulose) (HPC)): 93 % of control

CCOC(/C=C(\C)C(C)=O)OCC
T/C [1]: 97 % of control | T/C [2]: 98 % of control | T/C [3]: 95 % of control
